According to US8921582B2, “Oligo- and polyfurans, preparation and uses thereof” (Yeda Research and Development Co. Ltd., priority 2009, dated 2014):
Values after ≈ are worked out from the molar mass of the structure shown. Where two headings read alike, the source gives them in different places.

Legend:
[1] = Solubility of oligofurans in organic solvent; format: physicochemical; conditions: for solubility: in chloroform (solvent stated)
[2] = Thermogravimetric analysis (TGA) / stability in air; format: physicochemical; conditions: stable in air in the absence of light, FIG. 3
Method: FIG. 3 depicts Thermogravimetric Analysis (TGA) of oligofurans (a) 5F-8F and (b) 9F under N2, rate: 5° C./min.
FIG. 11 depicts thermogravimetric analysis (TGA) of oligofurans 6F, 8F and DH-6F under N2. Rate: 5° C./min.

## c1coc(-c2ccc(-c3ccc(-c4ccc(-c5ccc(-c6ccco6)o5)o4)o3)o2)c1 [6F, α-sexifuran]
[1]; in chloroform
  solubility of 6F relative to corresponding 6T: over 10 times
[1]; organic solvent or mixture, read-out: solubility
  solubility: 0.7 mg/mL (≈ 1760 µM)
[2]
  decomposition temperature: 303 °C

## c1csc(-c2ccc(-c3ccc(-c4ccc(-c5ccc(-c6cccs6)s5)s4)s3)s2)c1 [6T, α-sexithiophene, reference compound]
[1]
  solubility: < 0.05 mg/mL

## c1coc(-c2ccc(-c3ccc(-c4ccc(-c5ccc(-c6ccc(-c7ccc(-c8ccc(-c9ccco9)o8)o7)o6)o5)o4)o3)o2)c1 [9F, α-nonafuran]
[1]; warm acetone, Soxhlet extraction
  solubility in warm acetone: slightly soluble
